This note sets out measurements from patent US20160038439A1, “Use of 7-a-[9-(4,4,5,5,5-pentafluoropentylsulfinyl)nonyl]-estra-1,3,5(10)- triene-3,17B-diol and derivatives thereof” (XI'ANLIBANG PHARMACEUTICAL TECHNOLOGY CO., LTD., priority 2013, published 2016).

In assay [1] the test system is chicken type II collagen-induced arthritis model in SD rats. The assay is described as follows: Hindfoot joint score in chicken type II collagen-induced arthritis model in SD rats. The class given is in vivo. Further details: scale not given here. Conditions: tail vein, every other day. Here is the method: (§1) After inflamed model was successfully established in SD rats, the SD rats were randomly divided into model control group (12 rats), low, medium dose group (8 rats for each), and high dose group (12 rats) of test drug depending on body weight. Rats in the model control group were administered a blank fat emulsion injection (0.5 mL) by tail vein injection every other day for 7 days; rats in the low and medium dose group of test drug were administered a fat emulsion injection of a compound of Formula A (specifically including Compounds I-VI described hereafter) by tail vein injection every other day for 7 days; rats in the high dose group of test drug were administered a fat emulsion injection of a compound of Formula A by tail vein injection every other day for 14 days. 12 same models in the normal control group were also administered a blank fat emulsion injection. Indexes such as hindfoot joint score, hindfoot joint thickness measurement, TNF-α level in serum and hindfoot joint tissues, hindfoot joint pathological section and the like were used to evaluate efficacy of the drug.
(§2) Chicken type II collagen was dissolved in 0.1 mol/L acetic acid at 4° C. while stirring so as to be thoroughly dissolved at a concentration of 2 mg/mL The resulting solution was put into a refrigerator at 4° C. overnight. Liquid paraffin and lanolin were mixed at a ratio of 2:1 (volume ratio), and the mixture was autoclaved to prepare an incomplete Freund's adjuvant (IFA). Bacillus Calmette Guerin (BCG) vaccine (60 mg) was inactivated at 80° C. for 1 hour and transferred to a mortar, into which was dropwise added IFA. After being uniformly grinded, the resulting mixture was pushed and sucked repeatedly by double-syringe to prepare a complete Freund's adjuvant (CFA), with the final concentration of BCG vaccine being 2 mg/mL. An equal amount of chicken type II collagen acid solution was mixed with CFA into a stable emulsion (containing 1 mg chicken type II collagen per milliliter).
(§3) 12 female SD rats were randomly selected from 192 female SD rats as normal control group. The remaining 180 rats was disinfected with iodine tincture. After being deiodinated with 75% ethanol, each of the rat was administered 150 μL collagen emulsion by intradermal injection at the base of the tail, and was administered 100 μL collagen emulsion by intradermal injection at the vola pedis of right hindfoot. Thus, totally 250 μL for each rat was administered. 7 days later, an equal amount of collagen emulsion was intraperitoneal injected as a secondary immune.
(§4) Animal grouping and administration: inflamed rats were divided into model control group, low, medium and high dose groups of test drug based on body weight.
(§5) Rats in each group were scored for the hindfoot joint and measured for the thickness of ankle joint before being inflamed. Normal rats were taken blood from orbital venous plexus. The serum of the blood was separated out and cryopreserved at −20° C. to detect cytokines. Rats were scored for joint after being inflamed for 3 days, and were measured for the thickness of ankle joint before administration (on the 19th day since being inflamed), on the 3rd day and 8th day after administration (on the […] since being inflamed). Rats in each group were taken blood from orbital venous plexus when inflammation was severe (on the 23rd day after being inflamed). The serum of the blood was separated out and cryopreserved at −20° C. 8 rats for each group were sacrificed on the 28th day after being inflamed and were taken blood from intraperitoneal vein. The serum of the blood was separated out and was subjected to serological detection (TNF-α). The rest of rats were sacrificed on the 35th day after being inflamed, and histology index detection was carried out

The test system of assay [2] is TNF-α. The experiment in a line: TNF-α level in serum of rats with arthritis (ELISA). The class given is in vivo, SD rats. On the procedure:
as §1
(§6) Compound I used in the present invention was purchased from Xi′ an Libang Pharmaceutical Co., Ltd.; Compounds II-IV were synthesized by the following method. SD rats used in the present invention were purchased from Super-B&K Laboratory Animal Corp. Ltd.; chicken type II collagen was purchased from Sigma, Lot No. 87H5227; rat tumor necrosis factor-α [TNF-α] enzyme-linked immunoassay kit (ELISA) was purchased from Shanghai Biovol Biotech Co., Ltd., Lot No. BV-E12102201.
as §2, §3, §4
as §5, with “8 rats for each group were sacrificed on the 28th day after being inflamed and were taken blood from intraperitoneal vein. The serum of the blood was separated out and was subjected to serological detection (TNF-α). The rest of rats were sacrificed on the 35th day after being inflamed, and histology index detection was carried out” left out

For assay [3], the system named is TNF-α. The experiment in a line: TNF-α level in hindfoot ankle joint tissue of rats with arthritis. The class given is in vivo, SD rats. On the procedure:
as §1, §6, §2, §3, §4
as §5, with “8 rats for each group were sacrificed on the 28th day after being inflamed and were taken blood from intraperitoneal vein. The serum of the blood was separated out and was subjected to serological detection (TNF-α). The rest of rats were sacrificed on the 35th day after being inflamed, and histology index detection was carried out” left out

Assay [4] has as its system chicken type II collagen-induced arthritis model in SD rats. The assay is described as follows: Pathological examination score of hindfoot ankle joint of rats with arthritis. Type of assay: in vivo. Conditions: high dose group (1.40-2.16 mg/kg per compound), every other day for 14 days, n=4. On the procedure: as §1, §2
12 female SD rats were randomly selected from 192 female SD rats as normal control group. The remaining 180 rats was disinfected with iodine tincture. After being deiodinated with 75% ethanol, each of the rat was administered 150 μL collagen emulsion by intradermal injection at the base of the tail, and was administered 100 μL collagen emulsion by intradermal injection at the vola pedis of right hindfoot. […]
Rats in each group were scored for the hindfoot joint and measured for the thickness of ankle joint before being inflamed. […] Rats were scored for joint after being inflamed for 3 days, and were measured for the thickness of ankle joint before administration (on the 19th day since being inflamed), on the 3rd day and 8th day after administration (on the 20th day since being inflamed). […]

The test system is the same in assay [5]. The experiment in a line: Thickness of right hindfoot ankle joint by microcalliper, collagen-induced arthritis rats. Type of assay: in vivo. On the procedure:
as §1, §2, §3, §4, §5

Where [6] appears, read: high dose group, before administration (baseline).
Where [7] appears, read: high dose group, the 3rd day after administration.
[8] abbreviates: high dose group, the 8th day after administration.
The mark [9] stands for this setting: low dose group, before administration (baseline).
Setting [10] is: low dose group, the 3rd day after administration.
[11] abbreviates: low dose group, the 8th day after administration.
The mark [12] stands for this setting: medium dose group, before administration (baseline).
Where [13] appears, read: medium dose group, the 3rd day after administration.
Setting [14] is: medium dose group, the 8th day after administration.
The mark [15] stands for this setting: left ankle joint, high dose group.
Setting [16] is: left ankle joint, low dose group.
The mark [17] stands for this setting: left ankle joint, medium dose group.
Where [18] appears, read: right ankle joint, high dose group.
The mark [19] stands for this setting: right ankle joint, low dose group.
Setting [20] is: right ankle joint, medium dose group.

Marks after values point to notes of the source that are not given here.

On to “7-α-[9-(4,4,5,5,5-pentafluoropentylsulfinyl)nonyl]-estra-1,3,5(10)-triene-3-acetyl-17-(undec-2-enoyl) [Compound VI]”, for which the “Mean value of hindfoot joint score” value in assay [1] (setting [6]) is reported as 5.3; in assay [1] (setting [7]) it was 4.7**^#; in assay [1] (setting [8]), 5.5; in assay [1] (setting [9]), 4.6; in assay [1] (setting [10]), 5.4**^##; in assay [1] (setting [11]), 4.9. Besides, the “Mean value of hindfoot joint score” value in assay [1] (setting [12]) was 4.8; in assay [1] (setting [13]), 4.6**; in assay [1] (setting [14]) it was 5.5. Moreover, the “TNF-α level in serum (mean ± SD)” value was found to be 28.27 ± 37.62 pg/mL with TNF-α [2] (setting [7]); 26.56 ± 18.06 pg/mL with TNF-α [2] (setting [8]); 47.22 ± 96.55 pg/mL with TNF-α [2] (setting [10]); 197.35 ± 231.02 pg/mL in the assay on TNF-α [2] (setting [11]); 13.08 ± 7.93 pg/mL with TNF-α [2] (setting [13]); 78.21 ± 88.90 pg/mL with TNF-α [2] (setting [14]). Moreover, the “TNF-α level in ankle (mean ± SD)” value came to 12.05 ± 4.01 pg/mL in the assay with TNF-α [3] (setting [15]); 14.39 ± 3.52 pg/mL with TNF-α [3] (setting [16]); 13.98 ± 3.66 pg/mL with TNF-α [3] (setting [17]); 14.58 ± 2.79 pg/mL in the assay with TNF-α [3] (setting [18]); 15.31 ± 5.02 pg/mL in the assay with TNF-α [3] (setting [19]); 12.67 ± 5.23 pg/mL with TNF-α [3] (setting [20]). Besides, the “Joint lesion score (mean ± SD)” value in assay [4] is recorded as 1.88 ± 1.26.

For “7-α-[9-(4,4,5,5,5-pentafluoropentylsulfinyl)nonyl]-estra-1,3,5(10)-triene-3-hydroxyl-17-(undec-2-enoyl) [Compound V]”, the “Mean value of hindfoot joint score” value in assay [1] (setting [6]) is on record as 4.5; in assay [1] (setting [7]), 5.6^##; in assay [1] (setting [8]), 4.8; in assay [1] (setting [9]) it was 4.6; in assay [1] (setting [10]), 5.1**; in assay [1] (setting [11]), 5.9^##. Moreover, the “Mean value of hindfoot joint score” value was 4.4 in assay [1] (setting [12]), 5.7^## in assay [1] (setting [13]) and 4.4* in assay [1] (setting [14]). In addition, the “Thickness of ankle joint (mean ± SD)” value in assay [5] (setting [6]) turned out to be 6.28 ± 0.44 mm; in assay [5] (setting [7]) it was 6.44 ± 0.60 mm; in assay [5] (setting [8]), 6.07 ± 0.41 mm; in assay [5] (setting [9]) it was 6.27 ± 0.36 mm; in assay [5] (setting [10]), 6.36 ± 0.64 mm; in assay [5] (setting [11]), 6.20 ± 0.52 mm. The “Thickness of ankle joint (mean ± SD)” value in assay [5] (setting [12]) worked out at 6.09 ± 0.45 mm; in assay [5] (setting [13]), 6.74 ± 0.44 mm; in assay [5] (setting [14]), 6.15 ± 0.37 mm. Further, the “TNF-α level in serum (mean ± SD)” value with TNF-α [2] (setting [7]) is listed as 46.48 ± 101.05 pg/mL; in the assay on TNF-α [2] (setting [8]), 12.35 ± 9.72 pg/mL; in the assay with TNF-α [2] (setting [10]) it was 66.71 ± 121.06 pg/mL; in the assay with TNF-α [2] (setting [11]) it was 123.73 ± 157.16 pg/mL; in the assay with TNF-α [2] (setting [13]) it was 10.02 ± 14.59 pg/mL; with TNF-α [2] (setting [14]) it was 23.44 ± 27.21 pg/mL. For the same compound, the “TNF-α level in ankle (mean ± SD)” value in the assay with TNF-α [3] (setting [15]) stood at 12.76 ± 3.34 pg/mL; in the assay with TNF-α [3] (setting [16]), 13.56 ± 5.28 pg/mL; in the assay with TNF-α [3] (setting [17]), 14.25 ± 5.00 pg/mL; with TNF-α [3] (setting [18]) it was 13.68 ± 4.44 pg/mL; in the assay on TNF-α [3] (setting [19]), 12.71 ± 4.00 pg/mL; in the assay with TNF-α [3] (setting [20]), 11.73 ± 4.20 pg/mL. Also, in assay [4], the “Joint lesion score (mean ± SD)” value was determined as 3.75 ± 2.06.

As to `C[C@]12CC[C@@H]3c4ccc(O)cc4C[C@@H](CCCCCCCCC[S+]([O-])CCCC(F)(F)C(F)(F)F)[C@H]3[C@@H]1CC[C@@H]2O` (stereo partly drawn) [Compound I, 7-α-[9-(4,4,5,5,5-pentafluoropentylsulfinyl)nonyl]-estra-1,3,5(10)-triene-3,17β-diol, reference compound], the “TNF-α level in serum (mean ± SD)” value in the assay with TNF-α [2] (setting [7]) came out at 13.48 ± 25.05 pg/mL; with TNF-α [2] (setting [8]), 18.45 ± 12.72 pg/mL; with TNF-α [2] (setting [10]) it was 50.15 ± 60.06 pg/mL; with TNF-α [2] (setting [11]) it was 52.78 ± 67.16 pg/mL; with TNF-α [2] (setting [13]), 31.55 ± 54.58 pg/mL; with TNF-α [2] (setting [14]), 22.41 ± 25.25 pg/mL. The “TNF-α level in ankle (mean ± SD)” value is 8.66 ± 4.33 pg/mL in the assay with TNF-α [3] (setting [15]); 10.16 ± 5.82 pg/mL with TNF-α [3] (setting [16]); 9.57 ± 5.10 pg/mL in the assay with TNF-α [3] (setting [17]); 8.98 ± 7.44 pg/mL with TNF-α [3] (setting [18]); 10.71 ± 4.61 pg/mL in the assay with TNF-α [3] (setting [19]); 9.63 ± 3.02 pg/mL with TNF-α [3] (setting [20]).
